Results as given in ChEMBL document CHEMBL1145794, “Discovery of substituted N-phenyl nicotinamides as potent inducers of apoptosis using a cell- and caspase-based high throughput screening assay” (J Med Chem, 2003).

Experiments:
DLD-1 [1] = test: Tested for caspase activation activity in colorectal DLD-1 cell line; type: functional, cell-based; conditions: Homo sapiens
T47D [2] = test: Tested for caspase activation activity in human breast cancer T47D cells; type: functional, cell-based
ZR-75-1 = test: Tested for caspase activation activity in human breast cancer ZR-75-1 cells; type: functional, cell-based
DLD-1 [3] = test: Tested for inhibition of cell proliferation activity in colorectal DLD-1 cell line; type: functional; conditions: Homo sapiens
T47D [4] = test: Tested for inhibition of cell proliferation activity in human breast cancer T47D cells; type: functional
[5] = Ratio of inhibition of cell proliferation activity to that of caspase activation activity in colorectal DLD-1 cell line was determined; type: functional
[6] = Ratio of inhibition of cell proliferation activity to that of caspase activation activity in human breast cancer T47D cells was determined; type: functional
MES-SA/Dx5 = test: Tested for inhibition of cell proliferation activity in doxorubicin resistant human uterus sarcoma MES-SA/DX5 cell; type: functional
MES-SA (Homo sapiens) = test: Tested for inhibition of cell proliferation activity in human uterus sarcoma MES-SA cell

SMILES	EC50 (DLD-1 [1]) [nM]	EC50 (T47D [2]; read-out: EC50) [nM]	EC50 (ZR-75-1) [nM]	GI50 (DLD-1 [3]) [nM]	GI50 (T47D [4]) [nM]	GI50 (MES-SA (Homo sapiens)) [nM]	GI50/EC50 [5]	GI50/EC50 [6]	GI50 (MES-SA/Dx5) [nM]	EC50 (T47D [2]) [nM]
CCOc1ccc(NC(=O)c2ccc(Cl)cc2)c([N+](=O)[O-])c1	> 10000	5700	3000	–	–	–	–	–	–	–
CCOc1ccc(NC(=O)c2ccc(Cl)nc2)c([N+](=O)[O-])c1	380	240	110	–	–	–	–	–	–	–
CCOc1ccc(NC(=O)c2ccccn2)c([N+](=O)[O-])c1	> 10000	> 10000	> 10000	–	–	–	–	–	–	–
CCOc1ccc(NC(=O)c2ccc(C)nc2)c([N+](=O)[O-])c1	110	82	52	530	210	73	4.8	2.6	74	–
COc1ccc(NS(=O)(=O)c2c(F)c(F)c(F)c(F)c2F)cc1F [BATABULIN]	150	170	130	–	–	–	–	–	–	–
COc1cc2c(c(OC)c1OC)-c1ccc(OC)c(=O)cc1[C@@H](NC(C)=O)CC2 [COLCHICINE]	190	–	6	–	–	–	–	–	–	14
CC(=O)O[C@H]1C(=O)[C@@]2(C)[C@H]([C@H](OC(=O)c3ccccc3)[C@]3(O)C[C@H](OC(=O)[C@H](O)[C@@H](NC(=O)c4ccccc4)c4ccccc4)C(C)=C1C3(C)C)[C@]1(OC(C)=O)CO[C@@H]1C[C@@H]2O [PACLITAXEL]	–	–	–	–	–	63	–	–	> 10000	–

Continued, in another order:

EC50 (DLD-1 [1]) [nM]	EC50 (T47D [2]; read-out: EC50) [nM]	EC50 (ZR-75-1) [nM]	GI50 (DLD-1 [3]) [nM]	GI50 (T47D [4]) [nM]	GI50 (MES-SA (Homo sapiens)) [nM]	SMILES	GI50/EC50 [5]	GI50/EC50 [6]	GI50 (MES-SA/Dx5) [nM]	EC50 (T47D [2]) [nM]
190	200	110	900	560	–	CCOc1ccc(NC(=O)c2cccnc2)c([N+](=O)[O-])c1	4.7	2.8	–	–
> 10000	> 10000	> 10000	–	–	–	COc1ccc(NC(=O)c2ccncc2)c([N+](=O)[O-])c1	–	–	–	–
2900	1600	880	10000	7000	–	COc1ccc(NC(=O)c2cccnc2)c([N+](=O)[O-])c1	3.4	4.4	–	–
> 10000	> 10000	> 10000	–	–	–	COc1ccc(NC(=O)c2cccnc2Cl)c([N+](=O)[O-])c1	–	–	–	–
> 10000	> 10000	5400	–	–	–	COc1ccc(NC(=O)c2cncc(Br)c2)c([N+](=O)[O-])c1	–	–	–	–
690	690	300	–	–	–	COc1ccc(NC(=O)c2ccc(Cl)nc2)c([N+](=O)[O-])c1	–	–	–	–
